Measurements published in US20230219978A1, “COMPOUND HAVING MACROCYCLIC STRUCTURE AND USE THEREOF” (SCINNOHUB PHARMACEUTICAL CO., LTD, priority 2020, published 2023).

How the values were obtained:
Type in all cases: biochemical
[1] = molecular target: T1, RET wt (Homo sapiens, UniProt P07949); test: In vitro kinase activity assay (mobility shift assay), RET wild type; settings: ATP 16 μM, reaction time 60 min
T1 construct: purchased Carna 08-159
Description: (§1) The IC50 (half inhibitory concentration) values of the compounds were used as an indicator to evaluate the inhibitory effect of the compound on RET wild-type, RET mutant, TRKa, SRC, BTK and/or mutated BTK kinase.
(§2) Using the method of Mobility shift assay, the compounds were tested for inhibitory activity against the following kinases: RET wild type, RET mutant, TRKa, SRC, BTK and/or mutated BTK. The initial concentration of the test compound was 1000 nM, 3-fold dilution, 10 concentrations, detected in a well for each concentration.
(§3) 20 mM hydroxyethylpiperazineethanesulfonic acid (Hepes) (pH 7.5) buffer, 10 mM MgCl2, 1 mM ethylene glycol bis(aminoethyl ether)tetraacetic acid (EGTA), 0.02% polyoxyethylene lauryl ether (Brij35), 0.02 mg/ml […] (BSA), 0.1 mM Na3VO4, 2 mM dithiothreitol (DTT), 1% DMSO.
(§4) The test compounds were dissolved in 100% dimethyl sulfoxide (DMSO) system, and prepared as 10 mM for use, and stored in a nitrogen cabinet away from light.
(§5) • (1) Preparing 1× kinase reaction buffer. • (2) Preparation of compound concentration gradient: the initial concentration of the compounds was 1000 nM, which was diluted as 100-fold final concentration of solution in 100% dimethyl sulfoxide (DMSO) in a 384-well plate. The compound was accurately 3-fold diluted with the kinase buffer solution, 10 concentrations in total, and the final concentration was 0.0508 nM. The 100-fold final concentration of solution in 100% dimethyl sulfoxide (DMSO) was obtained by dilution in 384 source plate. The liquid separator Echo 550 was used to transfer 250 nl of 100-fold final concentration of compound to the target 384 well plate. 250 nl of DMSO was added to the positive and negative control wells. • (3) 2.5-fold final concentration of kinase solution was prepared by the 1× kinase buffer. • (4) 10 4, of 2.5-fold final concentration of kinase solution was added to the compound well and the positive control well, respectively; 10 4, of 1× kinase buffer was added to the negative control well. • (5) After centrifuging at 1000 rpm for 30 second, the reaction plate was shaken and mixed, followed by incubation at room temperature for 10 min. • (6) a mixed solution of 25/15-fold final concentration of adenosine triphosphate (ATP) and kinase substrate was prepared by 1× kinase buffer. • (7) The mixed solution (15 μL) of 25/15-fold final concentration of adenosine triphosphate (ATP) and substrate was added to initiate the reaction. • (8) 384-well plate was centrifuged at 1000 rpm for 30 second, shaken and mixed well, and then incubated at room temperature for 30-240 min. • (9) After stopping the kinase reaction, the plate was centrifugated at 1000 rpm for 30 second, shaken and mixed well. • (10)The conversion rate was read with Caliper EZ Reader.
(§6) wherein Conversion%_sample is the conversion rate reading of the sample; Conversion%_min: the mean value of negative control wells, representing the conversion rate reading of wells without enzymes; Conversion%_max: the mean value of positive control wells, representing the conversion rate reading of wells without compound inhibition.
(§7) The log value of concentration was taken as the X axis, and the percentage inhibition rate was taken as the Y axis. Graphpad 6.0 analysis software was used to fit the dose-response curve, so as to obtain the IC50 value of each compound on the enzyme activity

[2] = molecular target: T2, RET G810R (Homo sapiens, UniProt P07949, G810R); test: In vitro kinase activity assay (mobility shift assay), RET G810R; settings: ATP 201 μM, reaction time 4 h
T2 construct: purchased Proqinase 1724-0000-1
T2 sequence (P07949 29-1114 G810R): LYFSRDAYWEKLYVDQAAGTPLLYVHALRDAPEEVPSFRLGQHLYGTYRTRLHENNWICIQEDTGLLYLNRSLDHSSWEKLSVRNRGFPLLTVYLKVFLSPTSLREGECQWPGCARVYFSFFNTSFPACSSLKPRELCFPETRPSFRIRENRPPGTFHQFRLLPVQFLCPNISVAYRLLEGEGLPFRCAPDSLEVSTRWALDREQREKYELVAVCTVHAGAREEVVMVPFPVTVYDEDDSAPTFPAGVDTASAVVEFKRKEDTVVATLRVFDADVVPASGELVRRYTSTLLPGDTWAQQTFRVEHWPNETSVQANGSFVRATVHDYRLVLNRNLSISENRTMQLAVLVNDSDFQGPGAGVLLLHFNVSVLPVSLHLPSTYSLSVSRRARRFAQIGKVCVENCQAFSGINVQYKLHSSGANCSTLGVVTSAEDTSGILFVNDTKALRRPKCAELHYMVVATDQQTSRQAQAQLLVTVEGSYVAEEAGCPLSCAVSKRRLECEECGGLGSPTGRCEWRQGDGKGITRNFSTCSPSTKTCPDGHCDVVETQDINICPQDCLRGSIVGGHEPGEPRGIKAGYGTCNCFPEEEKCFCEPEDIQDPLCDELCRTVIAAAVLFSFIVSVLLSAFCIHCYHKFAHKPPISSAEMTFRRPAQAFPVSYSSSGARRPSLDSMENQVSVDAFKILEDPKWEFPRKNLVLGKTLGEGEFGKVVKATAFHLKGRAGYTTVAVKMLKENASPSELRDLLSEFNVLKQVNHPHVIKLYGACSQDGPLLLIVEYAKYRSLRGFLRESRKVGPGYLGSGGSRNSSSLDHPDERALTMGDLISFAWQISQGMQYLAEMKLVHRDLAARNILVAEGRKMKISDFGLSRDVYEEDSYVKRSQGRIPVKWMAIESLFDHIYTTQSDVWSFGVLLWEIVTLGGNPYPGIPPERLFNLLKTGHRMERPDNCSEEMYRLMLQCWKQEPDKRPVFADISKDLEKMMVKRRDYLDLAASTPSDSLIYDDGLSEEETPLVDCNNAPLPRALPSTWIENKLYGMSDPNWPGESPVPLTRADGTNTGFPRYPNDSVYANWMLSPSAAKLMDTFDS
Description: as §1, §2, §3, §4, §5, §6, §7

[3] = molecular target: T3, RET V804M (Homo sapiens, UniProt P07949, V804M); test: In vitro kinase activity assay (mobility shift assay), RET V804M; settings: ATP 5.4 μM, reaction time 60 min
T3 construct: purchased signalchem R02-12GG
T3 sequence (P07949 29-1114 V804M): as the sequence (P07949 29-1114 G810R) above, with V776M, R782G counted along it
Description: as §1, §2, §3, §4, §5, §6, §7

[4] = molecular target: T4, BTK (Homo sapiens, UniProt Q06187); test: In vitro kinase activity assay (mobility shift assay), BTK; settings: ATP 71 μM, reaction time 30 min
T4 construct: purchased Carna 08-180
T4 sequence (Q06187 whole entry): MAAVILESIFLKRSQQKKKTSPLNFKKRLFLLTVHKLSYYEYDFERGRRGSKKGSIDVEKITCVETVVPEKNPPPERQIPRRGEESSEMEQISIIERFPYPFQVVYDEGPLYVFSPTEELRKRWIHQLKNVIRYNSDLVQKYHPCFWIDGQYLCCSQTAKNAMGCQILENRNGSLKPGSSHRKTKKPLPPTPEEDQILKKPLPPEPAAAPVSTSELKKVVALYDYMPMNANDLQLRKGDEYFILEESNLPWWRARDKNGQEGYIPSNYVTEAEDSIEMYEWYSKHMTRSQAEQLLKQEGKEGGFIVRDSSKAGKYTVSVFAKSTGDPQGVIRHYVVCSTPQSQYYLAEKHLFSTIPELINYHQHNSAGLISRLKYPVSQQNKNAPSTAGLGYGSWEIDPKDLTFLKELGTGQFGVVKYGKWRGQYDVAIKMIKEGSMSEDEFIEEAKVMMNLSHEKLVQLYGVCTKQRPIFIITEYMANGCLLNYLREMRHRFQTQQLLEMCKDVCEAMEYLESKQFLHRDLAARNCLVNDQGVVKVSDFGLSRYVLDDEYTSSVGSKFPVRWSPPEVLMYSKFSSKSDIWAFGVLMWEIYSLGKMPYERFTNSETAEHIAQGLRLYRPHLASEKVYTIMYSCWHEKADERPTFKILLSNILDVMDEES
Description: as §1, §2, §3, §4, §5, §6, §7

[5] = molecular target: T5, TRKa (Homo sapiens, UniProt P04629); test: In vitro kinase activity assay (mobility shift assay), TRKa; settings: ATP 47.8 μM, reaction time 30 min
T5 construct: purchased Carna 08-186
T5 sequence (P04629 33-796): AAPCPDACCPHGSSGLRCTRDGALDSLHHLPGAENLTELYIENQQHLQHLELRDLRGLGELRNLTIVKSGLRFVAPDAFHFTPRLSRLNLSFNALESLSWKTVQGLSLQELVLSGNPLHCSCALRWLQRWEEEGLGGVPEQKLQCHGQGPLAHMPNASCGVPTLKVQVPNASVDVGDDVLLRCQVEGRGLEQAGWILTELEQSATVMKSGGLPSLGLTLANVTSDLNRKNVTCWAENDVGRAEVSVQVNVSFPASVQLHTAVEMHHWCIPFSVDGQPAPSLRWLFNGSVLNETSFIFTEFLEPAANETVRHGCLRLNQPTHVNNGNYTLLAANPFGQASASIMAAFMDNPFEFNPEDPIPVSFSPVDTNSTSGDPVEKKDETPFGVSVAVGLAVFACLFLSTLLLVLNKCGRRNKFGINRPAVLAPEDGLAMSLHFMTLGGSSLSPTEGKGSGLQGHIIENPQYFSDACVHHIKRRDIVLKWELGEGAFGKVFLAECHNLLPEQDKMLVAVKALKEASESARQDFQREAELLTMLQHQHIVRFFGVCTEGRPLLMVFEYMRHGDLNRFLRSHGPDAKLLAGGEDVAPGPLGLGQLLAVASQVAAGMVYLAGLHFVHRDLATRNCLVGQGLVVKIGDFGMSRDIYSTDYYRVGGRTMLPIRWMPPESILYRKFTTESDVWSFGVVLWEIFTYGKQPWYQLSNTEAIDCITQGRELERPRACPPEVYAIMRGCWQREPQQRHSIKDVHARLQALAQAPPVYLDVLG
Description: as §1, §2, §3, §4, §5, §6, §7

T1 sequence (P07949 29-1114): as the sequence (P07949 29-1114 G810R) above, with R782G counted along it

| SMILES | IC50 [1] | IC50 [2] | IC50 [3] | IC50 [4] | IC50 [5] |
| --- | --- | --- | --- | --- | --- |
| C[C@H]1CNC(=O)c2cnn3cc(C4=CCCC4)c(nc23)NCc2cc(F)cnc2O1 [Compound 41, (S, 1^3E, 1^4E)-1^6-(cyclopent-1-en-1-yl)-4^5-fluoro-6-methyl-5-oxa-2,8-diaza-1(5,3)-pyrazolo[1,5-a]pyrimidin-4(3,2)-pyridinacyclononaphan-9-one] | 13 nM | > 10000 nM | > 10000 nM | 2070 nM |  |
| Cc1ccccc1-c1cn2ncc3c2nc1NCc1cc(F)cnc1O[C@@H](C)CNC3=O [Compound 13, (S, 1^3E, 1^4E)-1^6-(2-methylphenyl)-4^5-fluoro-6-methyl-5-oxa-2,8-diaza-1(5,3)-pyrazolo[1,5-a]pyrimidina-4(3,2)-pyridinacyclononaphan-9-one] | 5.3 nM |  |  |  | > 10000 nM |
| O=C1N[C@H]2C[C@H](C2)Oc2ncc(F)cc2CNc2nc3c1cnn3cc2-c1ccccc1 [Compound 29] | 20 nM |  |  |  | > 10000 nM |
| CNC(=O)Nc1ccc(-c2cn3ncc4c3nc2NCc2cc(F)cnc2O[C@@H](C)CNC4=O)cc1 [Compound 32, 1-(4-((S, 1^3E, 1^4E)-4^5-fluoro-6-methyl-9-oxo-5-oxa-2,8-diaza-1(5,3)-pyrazolo[1,5-a]pyrimidin-4(3,2)-pyridinacyclononaphan-1^6-yl)phenyl)-3-methylurea] | 14.2 nM | 98.2 nM | 59 nM |  |  |
| C[C@H]1CNC(=O)c2cnn3cc(-c4ccc5[nH]c(=O)[nH]c5c4)c(nc23)NCc2cc(F)cnc2O1 [Compound 38, (S, 1^3E, 1^4E)-4^5-fluoro-6-methyl-1^6-(2-oxo-2,3-dihydro-1H-benzo[d]imidazol-5-yl)-5-oxo-2,8-diaza-1(5,3)-pyrazolo[1,5-a]pyrimidin-4(3,2)-pyridinacyclononaphan-9-one] | > 1000 nM | > 1000 nM |  | > 1000 nM |  |
| Nc1c(-c2ccccc2)c2nc3c(cnn13)C(=O)NCCCc1ncc(F)cc1CN2 [Example 73, (1^3E, 1^4E)-1^7-(amino)-4^5-fluoro-1^6-phenyl-2,8-aza-1(5,3)-pyrazolo[1,5-a]pyrimidinyl-4(3,2)-pyridinacyclononaphan-9-one] | 4.4 nM | 238 nM | 137 nM |  |  |
| C[C@H]1CNC(=O)c2cnn3cc(-c4ccccc4)c(nc23)NCc2cc(Cl)cnc2O1 [Compound 47, (S, 1^3E, 1^4E)-4^5-chloro-6-methyl-1^6-phenyl-5-oxa-2,8-diaza-1(5,3)-pyrazolo[1,5-a]pyrimidina-4(3,2)-pyridinacyclononaphan-9-one] | 26 nM | > 1000 nM | > 1000 nM |  |  |
| COC(=O)NC1CC=C(c2cn3ncc4c3nc2NCc2cc(F)cnc2O[C@@H](C)CNC4=O)CC1 (stereo partly drawn) [Compound 43, methyl (4((S, 1^3E, 1^4E)-4^5-fluoro-6-methyl-9-oxo-5-oxa-2,8-diaza-1(5,3)-pyrazolo[1,5-a]pyrimidin-4(3,2)-pyridinacyclononaphan-1^6-yl)cyclohex-3-en-1-yl)carbamate] | 68 nM | > 10000 nM | > 10000 nM | > 10000 nM |  |

Second part, the compound after the results:

| IC50 [1] | IC50 [2] | IC50 [3] | IC50 [4] | IC50 [5] | SMILES |
| --- | --- | --- | --- | --- | --- |
| 36 nM |  |  |  | > 10000 nM | Cc1cccc(-c2cn3ncc4c3nc2NCc2cc(F)cnc2O[C@@H](C)CNC4=O)c1 [Compound 12, (S, 1^3E, 1^4E)-1^6-(3-methylphenyl)-4^5-fluoro-6-methyl-5-oxa-2,8-diaza-1(5,3)-pyrazolo[1,5-a]pyrimidina-4(3,2)-pyridinacyclononaphan-9-one] |
| 3.5 nM | 361 nM |  | 3.6 nM |  | C[C@H]1CNC(=O)c2cnn3c(N)c(-c4ccc(N)cc4)c(nc23)NCc2cc(F)cnc2O1 [Example 60, (S, 1^3E, 1^4E)-1^7-amino-1^6-(4-aminophenyl)-4^5-fluoro-6-methyl-5-oxa-2,8-diaza-1(5,3)-pyrazolino[1,5-a] pyrimidin-4(3,2)-pyridinacyclononaphan-9-one] |
| 21 nM |  |  |  | 304 nM | C[C@H]1CNC(=O)c2cnn3cc(-c4c(F)cccc4F)c(nc23)NCc2cc(F)cnc2O1 [Compound 22, (S, 1^3E, 1^4E)-1^6-(2,6-difluorophenyl)-4^5-fluoro-6-methyl-5-oxa-2,8-diaza-1(5,3)-pyrazolo[1,5-a]pyrimidin-4(3,2)-pyridinacyclononaphan-9-one] |
| 15 nM | > 1000 nM | 551 nM |  |  | CCOC(=O)Nc1c(F)cc(-c2c3nc4c(cnn4c2N)C(=O)NC[C@H](C)Oc2ncc(F)cc2CN3)cc1F [Example 70, (S, 1^3E, 1^4E)-1^7-amino-4^5-fluoro-6-methyl-1^6-(6^2′^6-difluoro-6^1-(ethoxycarbonyl)amino-4-yl)phenyl-5-oxa-2,8-diaza-1(5,3)-pyrazolo[1,5-a]pyrimidinyl-4(3,2)-pyridinacyclononaphan-9-one] |
| 1.2 nM | 23 nM | 1.6 nM |  |  | CCOC(=O)Nc1ccc(-c2c3nc4c(cnn4c2N)C(=O)NC[C@H](C)Oc2ncc(F)cc2CN3)c(F)c1 [Example 71, ethyl (4-((S, 1^3E, 1^4E)-1^7-amino-4^5-fluoro-6-methyl-9-oxo-5-oxo-2,8-diaza-1(5,3)-pyrazolo[1,5-a]pyrimidin-4(3,2)-pyridinacyclononaphan-1^6-yl)-3-fluorophenyl)carbamate] |
| 0.87 nM | 16 nM | 2.8 nM |  |  | CCOC(=O)Nc1ccc(-c2c3nc4c(cnn4c2N)C(=O)NC[C@H](C)Oc2ncc(F)cc2CN3)cc1F [Example 69, ethyl (4-((S, 1^3E, 1^4E)-1^7-amino-4^5-fluoro-6-methyl-9-oxo-5-oxa-2,8-diaza-1(5,3)-pyrazolo[1,5-a]pyrimidin-4(3,2)-pyridinacyclononaphan-1^6-yl)-2-fluorophenyl)carbamate] |
| 0.56 nM | 14 nM | 1.4 nM |  |  | CCOC(=O)Nc1ccc(-c2c3nc4c(cnn4c2N)C(=O)NCCOc2ncc(F)cc2CN3)cc1 [Example 72, ethyl (4-((1^3E, 1^4E)-1^7-amino-4^5-fluoro-9-oxo-5-oxo-2,8-diaza-1(5,3)-pyrazolo[1,5-a]pyrimidin-4(3,2)-pyridinacyclononaphan-1^6-yl)phenyl)carbamate] |
| 0.6 nM | 15 nM | 0.99 nM |  |  | CCNC(=O)Nc1ccc(-c2c3nc4c(cnn4c2N)C(=O)NC[C@H](C)Oc2ncc(F)cc2CN3)cc1 [Example 80, 1-(4-((S, 1^3E, 1^4E)-1^7-amino-4^5-fluoro-6-methyl-9-oxo-5-oxa-2,8-diaza-1(5,3)-pyrazolo[1,5-a]pyrimidin-4(3,2)-pyridinacyclononaphan-1^6-yl)-phenyl)-3-ethylurea] |
| 1.19 nM | 35.7 nM | 3.58 nM |  |  | CCCOC(=O)Nc1ccc(-c2c3nc4c(cnn4c2N)C(=O)NC[C@H](C)Oc2ncc(F)cc2CN3)cc1 [Example 67, propyl (4-((S, 1^3E, 1^4E)-1^7-amino-4^5-fluoro-6-methyl-9-oxo-5-oxa-2,8-diaza-1(5,3)-pyrazolino [1,5-a]pyrimidin-4(3,2)-pyridinacyclononaphan-1^6-yl)-phenyl)carbamate] |
| 49 nM | > 1000 nM | 281 nM |  |  | CCNC(=O)Cc1ccc(-c2c3nc4c(cnn4c2N)C(=O)NC[C@H](C)Oc2ncc(F)cc2CN3)cc1 [Example 83, 2-(4-((S, 1^3E, 1^4E)-1^7-4^5-fluoro-6-methyl-9-oxo-5-oxa-2,8-diaza-1(5,3)-pyrazolo[1,5-a]pyrimidin-4(3,2)-pyridinacyclononaphan-1^6-yl)phenyl)-N-ethylacetamide] |
